How the values were obtained:
[1] = tested on: choroidal neovascularization (CNV); test: Laser-induced model of CNV (LI-CNV); assay type: in vivo, Long-Evans rats; conditions: flat mounts 10 days after laser injury
Protocol: Long-Evans rats (8-12 weeks old) were used to generate LI-CNV. Animals were treated in accordance to the guidelines of ARVO. Experiments were conducted with the approval of the institutional animal care ethics committee. Before each procedure, rats were anesthetized by intraperitoneal injections of a mixture of 85% ketamine (Bedford Laboratories, Bedford, Ohio) and 15% xylazine (VMD, Arendonk, Belgium). Topical anesthesia (Oxybuprocaine HCL 0.4%; Fisher Pharmaceuticals, Tel-Aviv, Israel) was applied to each eye 10 minutes before intravitreal injections or laser photocoagulation.
Laser burns (5-7 burns per eye) were generated. Intravitreal injections of all compounds were performed using a PLI-100 Pico-Injector (Medical System Corp., Greenvale, N.Y.) two days following the laser to allow for CNV development, and every 2 days thereafter for a total of 10 days. iMfs were injected only once, two days after laser injury was performed.
Experimental groups included: 4 μl of PBS, 1 μl of 100 μg/μl infliximab, 1 μl of 100 μg/μl aflibercept, 1 μl of 100 μg/μl infliximab with 1×10^5 M(IFNγ and LPS) suspended in 4 μl of PBS; 1 μl of 100 μg/μl aflibercept with 1×10^5 M(IFNγ and LPS) suspended in 4 μl of PBS; and 1×10^5 M(IFNγ and LPS) suspended in 4 μl of PBS, for a total of 5 experimental groups and 1 control group. Each experimental group included 8 injected eyes of 4 rats. The compound dosage was previously described (Xu et al., (2008)). Antibiotic ointment (5% Chloramphenicol) was applied after every injection. Choroid-RPE and retinal flat mounts were prepared 10 days following the laser injury.
RPE-choroidal flat-mounts were fixated for one hour in 4% PFA and suspended overnight in isolectin solution (GS-Ib4 Alexa 594 staining solution, Molecular Probes, Eugene, Oreg.) containing 200 mM NaN3 and 1 mM CaCl2). Flat mounts were then washed 6 times for 20 minutes in PBS and embedded on a slide with a mounting medium. The CNV area around each laser injury was measured using the ImageJ software.

[2] = tested on: choroidal sprouting (choroid-sclera complex with RPE in Matrigel); test: Choroid-sprouting assay (CSA), ex-vivo angiogenesis assay; assay type: cell-based, C57/BL6J mice; conditions: fixed after 8 days
Protocol: Cytokines were added to the media based on the maximal level of each cytokine via ELISA of M(IFNγ and LPS)-derived media. Five (5) cytokines were tested (n=8; replicates for each cytokine): 0.25 ng/μl VEGF, 0.5 ng/μl IL-8, 2.5 ng/μl IL-6, 0.05 ng/μl IL-1β, and 0.8 5 ng/μl TNFα (PeproTech, Rocky Hill, N.J., USA). Anti-TNF (infliximab, 100 μg/μl Remsima, Celltrion Inc., South Korea) and anti-VEGF (Aflibercept, 40 μg/μl, Bayer Pharma AG, Berlin, Germany), with or without iMfs' supernatant were also studied in the CSA. Compounds' concentrations were based on previous studies (Grattendick et al., (2008)). Controls included medium-treated CSA and iMfs' supernatant treated CSA.
C57/BL6J 4-6 weeks old mice, treated in accordance with the guidelines of the Association for Research in Vision and Ophthalmology (ARVO), were utilized to generate the CSA. Experiments were conducted with the approval of the institutional animal care ethics committee. Five (5) minutes after injecting with ketamine, animals were evaluated for responses and euthanized by cervical dislocation. Eyes were immediately enucleated and kept in ice-cold ECGS medium containing 100 units/ml penicillin-streptomycin and 1% glutamine before dissection. A choroid-sclera complex from the mice was gently dissected along with retinal pigment epithelium (RPE). The complex was cut into 5-6 1 mm long pieces. Fragments were embedded in 30 μl of growth factor-reduced-Matrigel™ (BD Biosciences, Cat. 354230) in 24-well plates. The thickness of the Matrigel™ was approximately 0.4 mm. Plates were then incubated for 10 minutes in 37° C., in a 5% CO2 cell culture incubator without medium to solidify the Matrigel™. Five hundred (500) μl of medium containing ECGM (C-22010, Promocell, Germany) 2.5% supplement mix (C-9215, Promocell, Germany), 5% FCS, 100 units/ml penicillin-streptomycin, and 1% glutamine, was added to each well. For the experimental groups containing the iMfs' supernatant, the medium was replaced with 250 μl of iMfs' supernatant. Medium for each well was changed every 3 days, and the cultures were fixed with 4% PFA after 8 days. Cultures were viewed with an inverted phase-contrast CKX41 Olympus microscope, and images were photographed with an Olympus DP70 digital camera (Olympus, Tokyo, Japan).
ImageJ software was used for sprouting area quantification. Sprouting area was selected by the software and measured after excluding the choroid tissue. Background (control well, for each plate, supplemented with medium only) was subtracted and analysis was performed for each sample. Ratios of each well of experimental group and its relative control from the same eye were calculated and averaged with its replicates.

[3] = intravitreal injection together with 1×10^5 M(IFNγ and LPS) iMfs
[4] = intravitreal injection, substance alone, compared to PBS
[5] = substance added alone to CSA medium, cytokines at maximal level found in M(IFNγ and LPS) media, infliximab 100 μg/μl

Substance | Mean of CNV size±SEM [1, 3] | Mean of CNV size±SEM [1, 4] | Mean of relative ratio between treated and untreated wells±SEM (sprouting area) [2, 5] | Mean of relative ratio between treated and untreated wells±SEM (sprouting area) ([2]; with M(IFNγ and LPS)s' supernatant)
Aflibercept [anti-VEGF] | 0.02±0.001 | 0.024±0.002 | – | –
infliximab [anti-TNF] | > 0.036±0.004 | 0.045±0.005 | 1.14±0.06 | > 1.06±0.04
IL-6: recombinant cytokine (PeproTech), 2.5 ng/μl | – | – | 0.64±0.1 | –
TNFα | – | – | > 1.6±0.2 | –
IL-8: recombinant cytokine (PeproTech), 0.5 ng/μl | – | – | 0.47±0.14 | –
VEGF | – | – | 0.86±0.08 | –
IL-1β: recombinant cytokine (PeproTech), 0.05 ng/μl | – | – | 0.8±0.2 | –

From patent publication US20200172974A1, “BIOMARKER FOR ANTI-TNF THERAPY IN RETINAL DISEASES” (HADASIT MEDICAL RESEARCH SERVICES & DEVELOPMENT LTD., priority 2017, published 2020)
